# Laboratory results from patent US4983328A, “N-(4-(3-aminopropyl)aminobutyl)-2-(ω-gua nidino-fatty-acid-amido(-2-substituted-ethanamide, salt thereof, and process for preparation thereof” (Bristol-Myers Company, priority 1981, dated 1991).
# How the values were obtained:
# [1] = system: mouse leukemia L-1210; assay: therapeutic effect on implanted cancer in mice (L-1210, survival over 30 days); type: in vivo, mouse (BDF1); conditions: L1210, ip, 720 h, 6 days; for responders at 1.56 mg/kg / response vs control in vivo at 1.56 mg/kg: 1.56 mg/kg/day i.p.; for responders at 3.13 mg/kg / response vs control in vivo at 3.13 mg/kg: 3.13 mg/kg/day i.p.; for responders at 6.25 mg/kg / response vs control in vivo at 6.25 mg/kg: 6.25 mg/kg/day i.p.; for responders at 12.5 mg/kg / response vs control in vivo at 12.5 mg/kg: 12.5 mg/kg/day i.p.; for responders at 25 mg/kg / response vs control in vivo at 25 mg/kg: 25 mg/kg/day i.p.
# Description: BDF1 strain male mice (5 weeks old) were each inoculated intraperitoneally with 10^5 mouse leukemia L-1210 cells and treated once a day by intraperitoneal injection with a test compound dissolved in physiological saline for 6 consecutive days beginning from the day of inoculation. The mice were then observed for 30 days to determine the rate of prolongation of survival period=100×T/C=100×(average survival days of treated group)/(average survival days of control group).
# [2] = acute toxicity in mice (single intraperitoneal administration); conditions: mouse, in vivo, ip; mice, single i.p.; read-out: LD50 (median lethal dose on single administration)
# Protocol: (§1) In Table 8 median lethal doses (LD50) of typical compounds of this invention are shown, measured in mice upon single intraperitoneal administration, as well as maximum tolerated doses in terms of total dose when a fixed amount per unit body weight was administered intraperitoneally to mice once a day for 6 consecutive days.
# *Median lethal dose on single administration.
# [3] = cumulative toxicity in mice (maximum tolerated dose, once a day for 6 consecutive days); conditions: mouse, in vivo, ip, i.p. once a day for 6 consecutive days, total dose, read-out: Maximum Tolerated Dose (total dose not causing death)
# Protocol: as §1
# **Maximum value of the total dose not causing death when a fixed amount
# per unit body weight is administered to mice once a day for 6 consecutive
# [4] = system: mouse leukemia L-1210 cells; assay: growth inhibitory activity to cancer cells in vitro (L-1210, 48 hours); type: cell-based; conditions: for inhibition at 1.25 µg/mL: L1210, 1.25 mcg/ml; for inhibition at 2.5 µg/mL: L1210, 2.5 mcg/ml; for inhibition at 5 µg/mL: L1210, 5 mcg/ml; for inhibition at 10 µg/mL: L1210, 10 mcg/ml; for inhibition at 20 µg/mL: L1210, 20 mcg/ml; for IC50: L1210, L-1210 cells, read-out: 50% inhibitory concentration; for inhibition at 40 µg/mL: L1210, 40 mcg/ml; for inhibition at 80 µg/mL: L1210, 80 mcg/ml
# Protocol: DBA/2 mice were implanted with 10^5 mouse leukemia L-1210 cells. The ascites collected asceptically from the mice after 4 days of feeding was washed three times with physiological saline to obtain L-1210 cells, which was then suspended in RPMI 1640 culture medium [G. E. Moore, Journal of the American Medical Association, Vol. 199, 519 (1967); H. J. Morton, In Vitro, Vol. 6, 89 (1970)] to which 10% fetal calf serum and 5 μM 2-mercaptoethanol had been added, and the resulting suspension was diluted to 5×10^4 L-1210 cells per 0.9 ml. A microplate carrying 0.9 ml of the cell suspension and 0.1 ml of the culture medium containing the sample being tested was kept in a carbon dioxide incubator at 37° C. After 48 hours of cultivation, the number of cells was measured by means of a Coulter Counter (Coulter Electronics, Inc., U.S.A.) to obtain the growth inhibition (%)=(1--T/C )×100=[1-(number of grown cells in medium containing sample/(number of grown cells in control medium)]×100. The 50% growth inhibitory concentration was calculated from the values of growth inhibition at varied sample concentrations. The results of tests on typical compounds of this invention for the growth inhibition of L-1210 cells were as shown in Table 6.
# [5] = chemical stability: retention (%) after heating at 60° C. for 4 hours, by HPLC; type: physicochemical
# Protocol: The chemical stability of the present compound was evaluated by determining the retention (%) after heating at 60° C. for 4 hours. In Table 5 are shown the test results together with those for spergualin as reference. The retention was determined by means of high performance liquid chromatography (HPLC). The column was packed with Nucleosil® 5C18. The solvent used for spergualin was a mixture (6:94) of acetonitrile -0.01M sodium pentanesulfonate +0.01M Na2 HPO4 (pH 3), while that for the compounds of this invention was a mixture of acetonitrile -0.005M sodium pentanesulfonate ±0.01M Na2 HPO4 (pH 3). The mixture ratio in the latter case was varied for each particular compound. For instance, a mixing ratio of 10:90 was used for Compound No. 9, while that of 7:93 for Compound No. 22.
# [6] = read-out: Number of mice survived for 30 days (converted)
# [7] = read-out: Prolongation of survival period (%), T/C × 100
# [8] = read-out: Growth inhibition (%), (1-T/C) × 100
Compound,LD50 [2] [mg/kg],MTD [3] [mg/kg],"inhibition at 1.25 µg/mL [4, 8] [%]","inhibition at 2.5 µg/mL [4, 8] [%]","inhibition at 5 µg/mL [4, 8] [%]","inhibition at 10 µg/mL [4, 8] [%]","inhibition at 20 µg/mL [4, 8] [%]",IC50 [4] [µg/mL],"remaining at 4 h ([5]; pH 2, pH 2) [%]","remaining at 4 h ([5]; pH 4, pH 4) [%]","remaining at 4 h ([5]; pH 6, pH 6) [%]","remaining at 4 h ([5]; pH 8, pH 8) [%]","remaining at 4 h ([5]; pH 9, pH 9) [%]","inhibition at 40 µg/mL [4, 8] [%]",also measured
"COC(NC(=O)CCCCCCNC(=N)N)C(=O)NCCCCNCCCN (single isomer, unassigned; (-)) [Compound 9 (-), (-)-N-[4-(3-aminopropyl)aminobutyl]-2-(7-guanidinoheptanamido)-2-methoxyethanamide]",,,,,,,,,,,,,,,"responders at 0.1 mg/kg ([1]; 0.10 mg/kg/day i.p., read-out: Number of mice survived for 30 days): 0%; response vs control in vivo at 0.1 mg/kg ([1]; 0.10 mg/kg/day i.p., read-out: Prolongation of survival period (%), T/C × 100): 110%; responders at 0.2 mg/kg ([1]; 0.20 mg/kg/day i.p., read-out: Number of mice survived for 30 days (converted)): 0%; response vs control in vivo at 0.2 mg/kg ([1]; 0.20 mg/kg/day i.p., read-out: Prolongation of survival period (%), T/C × 100): 127%; responders at 0.39 mg/kg ([1]; 0.39 mg/kg/day i.p., read-out: Number of mice survived for 30 days (converted)): 50%; response vs control in vivo at 0.39 mg/kg ([1]; 0.39 mg/kg/day i.p., read-out: Prolongation of survival period (%), T/C × 100): > 342%; responders at 0.78 mg/kg ([1]; 0.78 mg/kg/day i.p., read-out: Number of mice survived for 30 days (converted)): 50%; response vs control in vivo at 0.78 mg/kg ([1]; 0.78 mg/kg/day i.p., read-out: Prolongation of survival period (%), T/C × 100): > 370%; responders at 1.56 mg/kg [1, 6]: 50%; response vs control in vivo at 1.56 mg/kg [1, 7]: > 356%; responders at 3.13 mg/kg [1, 6]: 75%; response vs control in vivo at 3.13 mg/kg [1, 7]: > 411%; responders at 6.25 mg/kg [1, 6]: 25%; response vs control in vivo at 6.25 mg/kg [1, 7]: > 336%; responders at 12.5 mg/kg [1, 6]: 50%; response vs control in vivo at 12.5 mg/kg [1, 7]: > 390%; responders at 25 mg/kg [1, 6]: 0%; response vs control in vivo at 25 mg/kg [1, 7]: 0%"
"N=C(N)NCCCCCC(O)CC(=O)NC(O)C(=O)NCCCCNCCCN (stereo not drawn) [Compound 20, N-[4-(3-aminopropyl)aminobutyl]-2-(8-guanidino-3-hydroxyoctanamido)-2-hydroxyethanamide]",> 50,> 300,17.2,20.1,28.9,30.7,45.7,27,,,,,,,
"N=C(N)NCCCCCC(=O)NC(O)C(=O)NCCCCNCCCN (stereo not drawn) [Compound 3, N-[4-(3-aminopropyl)aminobutyl]-2-(6-guanidinohexanamido)-2-hydroxyethanamide]",> 50,> 300,20.6,36.7,64.2,81.6,86.7,3.7,,,,,,,
"COC(NC(=O)C[C@@H](O)CCCCNC(=N)N)C(=O)NCCCCNCCCN (single isomer, unassigned; (-)) [22 (-), (-)-11-O-methylspergualin]",,,,,,,,,79.7,100,100,100,97.6,,"remaining at 4 h ([5]; pH 5, pH 5): 100%; remaining at 4 h ([5]; pH 7, pH 7): 100%; remaining at 4 h ([5]; pH 10, pH 10): 95.7%; responders at 1.56 mg/kg [1, 6]: 0%; response vs control in vivo at 1.56 mg/kg [1, 7]: 177%; responders at 3.13 mg/kg [1, 6]: 20%; response vs control in vivo at 3.13 mg/kg [1, 7]: > 290%; responders at 6.25 mg/kg [1, 6]: 80%; response vs control in vivo at 6.25 mg/kg [1, 7]: > 400%; responders at 12.5 mg/kg [1, 6]: 80%; response vs control in vivo at 12.5 mg/kg [1, 7]: > 408%; responders at 25 mg/kg [1, 6]: 100%; response vs control in vivo at 25 mg/kg [1, 7]: > 423%"
"COC(NC(=O)CCCCCNC(=N)N)C(=O)NCCCCNCCCN (stereo not drawn) [Compound 8, N-[4-(3-aminopropyl)aminobutyl]-2-(6-guanidinohexanamido)-2-methoxyethanamide]",25 to 50,> 150,,,33.2,38.1,46.8,28,,,,,,53.5,"inhibition at 80 µg/mL [4, 8]: 66.3%; inhibition at 160 µg/mL ([4]; L1210, 160 mcg/ml, read-out: Growth inhibition (%), (1-T/C) × 100): 88.2%"
"CCCCOC(NC(=O)CCCCCCNC(=N)N)C(=O)NCCCCNCCCN (stereo not drawn) [Compound 13, N-[4-(3-aminopropyl)aminobutyl]-2-(7-guanidinoheptanamido)-2-butoxyethanamide]",,,17,21.3,24,33.2,65.7,14,72.4,100,100,100,98,72.5,"remaining at 4 h ([5]; pH 3, pH 3): 90.1%; remaining at 4 h ([5]; pH 10, pH 10): 96%"
"N=C(N)NCCCCC(=O)NC(O)C(=O)NCCCCNCCCN (stereo not drawn) [Compound 2, N-[4-(3-aminopropyl)aminobutyl]-2-(5-guanidinopentanamido)-2-hydroxyethanamide]",> 50,> 300,9.6,30.5,46.9,69.5,77.6,5,,,,,,79.6,"inhibition at 80 µg/mL [4, 8]: 79.6%"
"N=C(N)NCCCC[C@H](O)CC(=O)NC(O)C(=O)NCCCCNCCCN (single isomer, unassigned; (-)) [(-)-spergualin, reference compound]",,,,,,,,,88.1,87.8,46.5,6.1,0,,"remaining at 4 h ([5]; pH 3, pH 3): 88%; remaining at 4 h ([5]; pH 5, pH 5): 82.5%; remaining at 4 h ([5]; pH 7, pH 7): 12.6%"
"COC(NC(=O)C[C@@H](O)CCCCNC(=N)N)C(=O)NCCCCNCCCN (single isomer, unassigned; (+)) [Compound 22 (+), (+)-11-O-methylspergualin]",,,,,,,,,,,,,,,"Stability [Retention (%)] ([5]; pH 2): 79.7%; Stability [Retention (%)] ([5]; pH 4): 100%; Stability [Retention (%)] ([5]; pH 5): 100%; Stability [Retention (%)] ([5]; pH 6): 100%; Stability [Retention (%)] ([5]; pH 7): 100%; Stability [Retention (%)] ([5]; pH 8): 100%; Stability [Retention (%)] ([5]; pH 9, 240 min): 100%; Stability [Retention (%)] ([5]; pH 10, 240 min): 95.6%"
"COC(NC(=O)CCCNC(=N)N)C(=O)NCCCCNCCCN (stereo not drawn) [Compound 7, N-[4-(3-aminopropyl)aminobutyl]-2-(4-guanidinobutanamido)-2-methoxyethanamide]",,,38.7,80.7,98.5,99.8,99.9,1.5,,,,,,99.3,
